In one assay the test system is alpha-1-antitrypsin. Briefly: Pathological alpha-1-antitrypsin (Z-allele) accumulation in transfected HeLa cells. The following applies: HeLa cells transfected with PXR/RXR and Z-allele of alpha-1-antitrypsin, 50µM, 24h; Figure 10. It is filed as cell-based, human. How it is done: (§1) Western blot: Protein lysate was generated by homogenization (Magnalyzer, Roche) of tissue or cell pellet in homogenization buffer with protease and phosphatase inhibitors (Halt tablets, Invitrogen). After homogenization, lysates were sonicated 2x for 10" each. Lysates were then centrifuged for 10 min at 4°C and the supernatant was subjected to BCA protein estimation (Thermo Fisher). Equal amounts of lysate were loaded to self-made acrylamide gels. After separation, the protein was transferred to a PVDF membrane with semi-dry transfer.

Another assay deals with TFEB. Briefly: LC3 II induction after TFEB knockdown (siTFEB) in HepG2 cells. It is filed as cell-based, human. The following applies: 50µM, +/- chloroquine, Figure 9. The procedure: as §1
The subject of assay [1] is HepG2 cells. Briefly: pGFP-RFP-LC3 autophagic flux assay in transfected HepG2 cells. To be noted: fed condition, 50µM, Figures 3C, 6C.
Assay [2] concerns HepG2 cells. Nature of the assay: Autophagic flux assay (LC3 II Western blot, with or without chloroquine) in HepG2 cells. The following applies: 50µM hyperforin vs ethanol vehicle, Figure 6A. Format: cell-based, human. How it is done:
as §1

Results on 1 substance are retold here after patent EP3760204A1, “MEDICAMENT FOR PREVENTION OR TREATMENT OF HUNTINGTON'S DISEASE” (Medizinische Universität Graz, priority 2019, dated 2021).

Turning to hyperforin, the “pathological A1AT accumulation” value with alpha-1-antitrypsin was “robustly decreases”. For the same substance, the “LC3 II in the presence of TFEB” value in the assay on TFEB (non-targeting control (NT) HepG2 cells) is given as “induces”. Also, the “LC3 II induction in siTFEB cells” value in the assay with TFEB (siTFEB HepG2 cells) is given as “blunted”. Besides, the “autophagic flux (GFP-RFP-LC3 dots)” value with HepG2 cells [1] is on record as “induced autophagic flux”. Moreover, the “LC3 II protein” value in the assay on HepG2 cells [2] is “induces”.
